# Experiments:
# FAAH [1] = molecular target: T1, FAAH (Mus musculus, UniProt O08914); experiment: FAAH activity in brain homogenate after oral dosing of mice; type: in vivo; conditions: 8 h, remaining activity vs controls, low value = strong inhibitor, read-out: FAAH Activity (%) Br h
# T1 construct: A fragment of liver and brain without cerebellum were removed and put in plastic vials containing membrane buffer; from tissue; host or cells: brain (without cerebellum) and liver homogenates of male NMRI mice
# T1 sequence (O08914 1-579): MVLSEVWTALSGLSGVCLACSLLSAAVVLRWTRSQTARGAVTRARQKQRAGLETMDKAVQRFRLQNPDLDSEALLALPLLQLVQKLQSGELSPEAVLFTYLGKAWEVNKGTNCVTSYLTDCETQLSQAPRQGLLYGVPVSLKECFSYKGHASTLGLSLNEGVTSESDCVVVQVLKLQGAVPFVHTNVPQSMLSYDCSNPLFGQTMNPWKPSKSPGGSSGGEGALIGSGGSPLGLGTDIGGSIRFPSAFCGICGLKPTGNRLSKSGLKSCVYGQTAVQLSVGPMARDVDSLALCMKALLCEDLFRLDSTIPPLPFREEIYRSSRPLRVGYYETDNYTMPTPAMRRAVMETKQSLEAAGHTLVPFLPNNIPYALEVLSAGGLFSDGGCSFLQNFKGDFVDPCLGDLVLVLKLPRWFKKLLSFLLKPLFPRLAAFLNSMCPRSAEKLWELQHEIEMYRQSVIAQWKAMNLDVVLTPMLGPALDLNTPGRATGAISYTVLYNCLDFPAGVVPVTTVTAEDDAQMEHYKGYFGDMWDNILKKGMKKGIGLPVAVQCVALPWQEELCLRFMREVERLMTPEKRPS
# Method: (§1) In vivo testing was performed according to the protocol described below. BRh (brain homogenate) indicates inhibition in central nervous tissue, in this case, brain, and LVh (liver homogenate) indicates inhibition in peripheral tissue, in this case, liver. The controls were the reaction mix minus the test compounds. Therefore, a low value for the test compound indicates a strong inhibitor.
# (§2) The animals used for experiments were male NMRI mice (weighing 27-44 g) obtained from Interfauna Ibérica (Spain). Mice were kept 5 per cage, under controlled environmental conditions (12 hr light/dark cycle and room temperature 22±1° C.). Food and tap water were allowed ad libitum and the experiments were all carried out during daylight hours.
# (§3) Animals were always fasted overnight before administration of compounds.
# (§4) Animals were administered the appropriate dose of the compound of the invention via oral route (8 ml/kg; compound suspended in 0.5% carboxymethylcellulose (CMC) or solubilized in water) or vehicle (controls) using animal feeding stainless steel curve needles (Perfectum, U.S.A.). Fifteen minutes before sacrifice animal were anesthetized with pentobarbital 60 mg/kg administered intraperitoneally. A fragment of liver and brain without cerebellum were removed and put in plastic vials containing membrane buffer (3 mM MgCl2, 1 mM EDTA, 50 mM Tris HCl pH 7.4). Tissues were stored at −30° C. until analysis.
# Anandamide [ethanolamine-1-^3H-] (40-60 Ci/mmol) was obtained from American Radiochemicals. All other reagents were obtained from Sigma-Aldrich. […]
# (§5) Total protein in tissues was determined with the BioRad Protein Assay (BioRad) using a standard curve of BSA (50-250 μg/ml).
# Reaction mix (total volume of 200 μl) contained: 2 μM AEA (2 μM AEA+5 nM ^3H-AEA), 0.1% fatty acid free BSA, 15 μg (brain) or 5 μg (liver) protein, in 1 mM EDTA, 10 mM Tris pH 7.6. […] Counts per minute (cpm) were determined in a MicrobetaTriLux scintillation counter. […]
# (§6) The percentage of remaining enzymatic activity was calculated with respect to controls and after blank subtraction.
# FAAH [2] = molecular target: T1, FAAH; experiment: FAAH activity in liver homogenate after oral dosing of mice; type: in vivo; conditions: for Peripheral Selectivity: FAAH activity in the liver divided by FAAH activity in the brain (3 mg/kg, 8 h, po), lower = peripherally more selective; for activity at 0.1 mg/kg / activity at 0.01 mg/kg / activity at 0.03 mg/kg / activity at 0.3 mg/kg / activity at 3 mg/kg / activity at 1 mg/kg: mouse, po; for activity at 3 mg/kg: liver homogenate, remaining activity vs controls, read-out: FAAH Activity (%) Lv h
# Method: as §1, §2, §3, §4
# Anandamide [ethanolamine-1-^3H-] (40-60 Ci/mmol) was obtained from American Radiochemicals. All other reagents were obtained from Sigma-Aldrich. Optiphase Supermix was obtained from Perkin Elmer and activated charcoal was obtained from Sigma-Aldrich.
# Tissues were thawed on ice and were homogenized in 10 volumes of membrane buffer (3 mM MgCl2, 1 mM EDTA, 50 mM Tris HCl pH 7.4) with either Potter-Elvejhem (brains—8 strokes at 500 rpm) or Heidolph Diax (livers—2 strokes at position 5 for 20 sec with 30 sec pauses).
# as §5
# Reaction mix (total volume of 200 μl) contained: 2 μM AEA (2 μM AEA+5 nM ^3H-AEA), 0.1% fatty acid free BSA, 15 μg (brain) or 5 μg (liver) protein, in 1 mM EDTA, 10 mM Tris pH 7.6. After a 15 min pre-incubation period at 37° C., reaction was started by the addition of the substrate solution (cold AEA+radiolabelled AEA+BSA). Reaction was carried out for 10 min (brain) or 7 min (liver) before termination by the addition of 400 μl activated charcoal suspension (8 g charcoal in 32 ml 0.5 M HCl in continuous agitation). After a 30 min incubation period at room temperature with agitation, charcoal was sedimented by centrifugation in microfuge (10 min at 13000 rpm). 200 μl of the supernatant were added to 800 μl Optiphase Supermix scintillation cocktail previously distributed in 24-well plates. Counts per minute (cpm) were determined in a MicrobetaTriLux scintillation counter.
# In each assay blanks (without protein) were prepared.
# as §6
# FAAH [3] = molecular target: T2, FAAH (Rattus norvegicus, UniProt P97612); experiment: FAAH activity in liver homogenate after oral dosing of rats; type: in vivo; conditions: gavage; for activity at 0.1 mg/kg: rat, po
# T2 construct: Liver biopsies and brain samples (without cerebellum) were collected and placed in a plastic vial containing membrane buffer; from tissue; host or cells: liver homogenate of male Wistar rats
# T2 sequence (P97612 1-579): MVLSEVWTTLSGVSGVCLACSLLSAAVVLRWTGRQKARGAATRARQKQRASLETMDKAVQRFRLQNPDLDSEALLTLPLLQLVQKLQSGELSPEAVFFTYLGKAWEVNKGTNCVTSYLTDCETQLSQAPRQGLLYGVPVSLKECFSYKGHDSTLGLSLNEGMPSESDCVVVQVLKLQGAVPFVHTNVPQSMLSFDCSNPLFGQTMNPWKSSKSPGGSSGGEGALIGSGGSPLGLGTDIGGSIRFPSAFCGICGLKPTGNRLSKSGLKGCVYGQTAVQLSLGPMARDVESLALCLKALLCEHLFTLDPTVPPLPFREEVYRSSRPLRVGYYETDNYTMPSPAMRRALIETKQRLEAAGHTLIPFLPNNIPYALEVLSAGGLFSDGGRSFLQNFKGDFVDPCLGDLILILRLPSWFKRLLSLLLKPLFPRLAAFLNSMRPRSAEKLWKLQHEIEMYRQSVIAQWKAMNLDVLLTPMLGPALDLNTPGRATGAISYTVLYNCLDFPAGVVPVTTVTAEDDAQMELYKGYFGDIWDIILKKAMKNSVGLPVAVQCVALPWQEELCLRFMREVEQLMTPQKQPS
# Method: as §1
# Male Wistar rats (body weight range: 190-230 g) were obtained from Harlan (Spain). Rats were kept 5 per cage, under controlled environmental conditions (12 hr light/dark cycle and room temperature 22±1° C.). Food and tap water were allowed ad libitum and the experiments were all carried out during daylight hours.
# Rats were administered the appropriate dose of compound of the invention via gavage (administration volume=4 ml/kg body weight) using animal feeding stainless steel curve needles (Perfectum, U.S.A.). Vehicle was 0.5% CMC in Milli Q water. Rats were fasted at least 15 h before experiments.
# Fifteen minutes before sacrifice animals were anesthetized with pentobarbital i.p. 60 mg/kg body weight. Liver biopsies and brain samples (without cerebellum) were collected and placed in a plastic vial containing membrane buffer (3 mM MgCl2, 1 mM EDTA, 50 mM Tris HCl pH 7.4) and, in the case of liver samples, glass beads (2.5 mm BioSpec Products). Tissues were stored at −20° C. until analysis.
# Anandamide [ethanolamine-1-3H-] was obtained from American Radiochemicals (specific activity of 60 Ci/mmol). All other reagents were obtained from Sigma-Aldrich. Optiphase Supermix was obtained from Perkin Elmer.
# Tissues were thawed on ice; livers were homogenized in a Precellys 24 Dual Tissue Homogenizer (Bertin Technologies) for 2 cycles of 5 sec with an interval of 5 min in ice and brains were homogenized with Heidolph Silent Crusher M (probe 8 F/M) for about 45 sec at maximum velocity. Total protein in homogenates was determined with the BioRad Protein Assay (BioRad) using a standard curve of BSA (50-250 μg/ml).
# Reaction mix (total volume of 200 μl) contained: 2 μM AEA (2 μM AEA+5 nM 3H-AEA), 0.1% fatty acid free BSA, 15 μg (brain) or 1.5 μg (liver) protein, in 1 mM EDTA, 10 mM Tris pH 7.6. After 15 minutes pre-incubation at 37° C. reaction was started by the addition of the substrate solution (cold AEA+radiolabelled AEA+BSA). Reaction was carried out for 7 minutes for liver samples and for 10 min for brain samples and terminated by addition of 400 μL chloroform:methanol (1:1, v/v) solution. Reaction samples were vortex twice, left on ice for 5 minutes and then centrifuged in microfuge (7 minutes, 7000 rpm). Two-hundred μl of supernatants were added to 800 μl Optiphase Supermix scintillation cocktail previously distributed in 24-well plates. Counts per minute (cpm) were determined in a Microbeta TriLux scintillation counter. In each assay blank samples (without protein) were prepared. The percentage of remaining enzymatic activity was calculated in respect to controls and after blank subtraction.
# [4] = CYPs metabolic stability assay in MLM; type: in vitro ADME, mouse; conditions: 1 h, 50 μM compound; for Metabolic Stability (% of Remaining) Mouse CYP+: with NADPH; for Metabolic Stability (% of Remaining) Mouse CYP−: without NADPH (control value)
# Method: (§7) Stability of the test compounds was performed in MLM (mouse liver microsomes) or HLM (human liver microsomes) in the presence and in the absence of NADPH.
# (§8) The stability was measured using the incubation mixture (100 μl total volume) contained 1 mg/ml total protein, MgCl2 5 mM and 50 mM K-phosphate buffer. Samples were incubated in the presence and in the absence of NADPH 1 mM. Reactions were pre-incubated 5 min and the reaction initiated with the compound under test (5 μM for HLM and 50 μM for MLM). Samples were incubated for 60 min in a shaking water bath at 37° C. The reaction was stopped by adding 100 μl of acetonitrile. Samples were then centrifuged, filtered and supernatant injected in HLPC-MSD. Test compounds were dissolved in DMSO and the final concentration of DMSO in the reaction was below 0.5% (v/v). At T0 acetonitrile was added before adding the compound. All experiments were performed with samples in duplicate.
# (§9) The stability data are given as % of remaining compound after 1 h exposure to MLM or HLM. 100% means no metabolic reaction at all and 0% corresponds to full enzymatic degradation. “CYP−” refers to the absence of cofactor (NADPH) which is essential for CYP metabolic reactions. Therefore “CYP−” can be regarded as control value. “CYP+” refers to the presence of cofactor and the enzymatic degradation may take place according to the stability of the test compound.
# [5] = CYPs metabolic stability assay in HLM; type: in vitro ADME, human; conditions: 1 h, 5 μM compound; for Metabolic Stability (% of Remaining) Human CYP+: with NADPH; for Metabolic Stability (% of Remaining) Human CYP−: without NADPH (control value)
# Method: as §7, §8, §9
Compound,activity at 3 mg/kg (FAAH [1]),Peripheral Selectivity (FAAH [2]),activity at 0.1 mg/kg (FAAH [2]; 1 h),activity at 0.01 mg/kg (FAAH [2]; 8 h),activity at 0.03 mg/kg (FAAH [2]; 8 h),activity at 0.1 mg/kg (FAAH [2]; 8 h),activity at 0.3 mg/kg (FAAH [2]; 8 h),activity at 3 mg/kg (FAAH [2]; 8 h),activity at 0.1 mg/kg (FAAH [3]; 1 h),activity at 0.1 mg/kg (FAAH [3]; 8 h),Metabolic Stability (% of Remaining) Mouse CYP+ [4],Metabolic Stability (% of Remaining) Mouse CYP− [4],Metabolic Stability (% of Remaining) Human CYP+ [5],Metabolic Stability (% of Remaining) Human CYP− [5],melting point,activity at 1 mg/kg (FAAH [2]; 1 h),"FAAH Activity (%) rat Liver (FAAH [3]; Dose: 1 mg/k9, 1 h)","FAAH Activity (%) rat Liver (FAAH [3]; Dose: 1 mg/k9, 8 h)","FAAH Activity (%) rat Liver (FAAH [3]; Dose: 1 mg/k9, 24 h)"
"Cc1cc(-c2cn(C(=O)N(C)C3CCN(C(=O)C4CC4)CC3)cn2)ccc1O [Compound 3, N-(1-(Cyclopropanecarbonyl)piperidin-4-yl)-4-(4-hydroxy-3-methylphenyl)-N-methyl-1H-imidazole-1-carboxamide]",91.7%,0.020,37.9%,56.3%,53%,10.7%,7.2%,1.8%,83.5%,62.5%,98%,91%,99%,102%,204 °C,–,–,–,–
"CN(C(=O)n1cnc(-c2cccc(NS(N)(=O)=O)c2)c1)C1CCOCC1 [Compound 1, N-Methyl-4-(3-(sulfamoylamino)phenyl)-N-(tetrahydro-2H-pyran-4-yl)-1H-imidazole-1-carboxamide]",117%,0.042,–,–,–,–,36.1%,4.9%,–,–,93%,100%,96%,102%,128 °C,8.5%,9.8%,4.8%,22.7%
"CCC(=O)N1CCC(N(C)C(=O)n2cnc(-c3ccc(O)c(C)c3)c2)CC1 [Compound 2, 4-(4-Hydroxy-3-methylphenyl)-N-methyl-N-(1-propionylpiperidin-4-yl)-1H-imidazole-1-carboxamide]",81.7%,0.018,21.9%,48.2%,42.9%,6.7%,5.6%,1.5%,78.2%,59.1%,86%,83%,100%,94%,232 °C,2.3%,25.7%,18.2%,17.8%
